From patent US20250188032A1, “NITROGEN-CONTAINING HETEROCYCLIC COMPOUNDS AND USES THEREOF” (BNH RESEARCH CO., LTD., priority 2022, published 2025)

Tested on: C57BL/6J mice barrel cortex (layer 4)
Test: Synaptic function test: TC EPSC potency and GABA/AMPA ratio in barrel cortex (layer 4)
Assay type: in vivo
Description: Eight weeks old male C57BL/6J mice were anesthetized with isoflurane during surgery. The mice were then be placed in a stereotaxic frame (RWD Life Science, China). The parietal and the frontal bones were exposed by a sagittal incision of the scalp at the midline from the level of the eyes to the occipital protuberance. A small burr hole was drilled after exposing the skull. The injection cannula was placed at the following coordinates: (Mouse: Bregma −3.30, lateral −1.50, and ventral 0.7 mm). Sterile saline solution (+/−a compound of the present disclosure) was perfused at a constant flow rate of 0.5 μL/h through the injection cannula using a mini-Os pump (DURECT Corporation ALZET Osmotic Pumps, CA). Implantation was done in layer 4 of the barrel cortex ipsilateral. To estimate extent of the diffusion of the injected compound in layer 4 barrel cortex during pump injection, methylene blue was first injected to stain the diffusion area. On average methylene blue diffused to […] away from the injection site (the total area of the barrel cortex region is about 1500 μm). Based on this analysis, the present inventors recorded from barrel cortex area.
2 mg of BnH12001 was dissolved in 800 ul of DMSO and prepared as a stock solution. For oral administration, BnH12001 DMSO stock:PEG400:Saline was mixed in a ratio of 5:55:40 and 200 μl/animal was administered. For the control group, a vehicle in which DMSO:PEG400:Saline was mixed in a 5:55:40 ratio was administered at 200 ul/animal. In the single drug administration test, the compound was administered once a day for about 11 to 12 days at a dose of 1 mg/kg. Dose response test was performed by administering the compound once a day for about 11 to 12 days at doses of 0.03, 0.1, 0.3, 1, 3, and 10 mg/kg. 5 mice were used for the compound administration group and the control group, respectively.
For TC or hippocampus slice preparation. 9 to 10 weeks-old male C57BL/6J mice were anesthetized with isoflurane. Then, the brain was rapidly cooled via transcardial perfusion with ice-cold sucrose-artificial cerebrospinal fluid (aCSF). The brain was removed and placed in ice-cold sucrose aCSF. Paracoronal slices were prepared at an angle of 50° relative to the midline on a ramp at an angle of 10°. Then, slices were incubated in aCSF at 35° C. for 30 minutes to recover. Slices were then incubated in aCSF at room temperature (23 to 25° C.) for 1 to 4 hours before being placed in the recording chamber for experiments. The standard aCSF contains saturated with 95% O2/5% CO2. The brain of the mouse was removed and cut into 400 μm at a 50° angle (mouse at a 55° angle) to attach the cut portion to the vibratome disc to be the bottom. Brain slice was incubated in 35° C. in aCSF solution for 30 minutes, or at RT in aCSF solution for 1 hour.
All electrophysiological experiments were conducted at 27 to 29° C. For electrophysiological experiments, electrodes with […] resistance were used and stimuli were applied to the ventral posteromedial nucleus (VPM) using a concentric bipolar electrode (FHC, Bowdoin, ME). The somatosensory cortex was identified by the presence of barrels under 4× magnification and differential interference contrast (DIC) optics, and by the ability to evoke short and constant latency field excitatory postsynaptic potentials (fEPSPs) by VPM stimulation. Whole-cell voltage-clamp recordings were made from stellate cells (SC) in layer IV of the somatosensory barrel cortex using infrared illumination and differential interference contrast (DIC) optics. The composition of whole cell recording solution is shown as follows:
Whole cell recordings were made using a multiclamp 700A (Molecular devices, Sunnyvale, CA) digitized at 10 kHz and filtered at 2 kHz. […]

[1] = oral, 1 mg/kg, 8-week-old C57BL/6J mice
[2] = applied to the mice barrel cortex using Alzet osmotic pump

C[C@H]1CC[C@@H](C(=O)O)CN1C(=O)Cc1ccc(F)cc1Cl [BnH12001 enantiomer (3R,6S, 98%<), (3R,6S)-1-(2-(2-chloro-4-fluorophenyl)acetyl)-6-methylpiperidine-3-carboxylic acid]
Balance of excitation/inhibition (GABA/AMPA ratio) [1]: maintaining the balance of excitation/inhibition
Efficacy on TC synaptic potency compared among racemate and enantiomers [1]: better efficacy than the racemate
TC synaptic potency in the sensory cortex [1]: increase the TC synaptic potency

cyclotraxin B [reference compound]
BDNF-induced augmentation of TC EPSC potency (cyclotraxin B 1 μM application): almost completely prevented
BnH12001-induced increase of TC EPSC potency (cyclotraxin B 1 μM application): nearly completed hindered

B1: BDNF: brain-derived neurotrophic factor applied to the mice barrel cortex using Alzet osmotic pump (protein, UniProt P23560 19-247, looked up)
Neurotrophic factor BDNF …: APMKEANIRGQGGLAYPGVRTHGTLESVNGPKAGSRGLTSLADTFEHVIEELLDEDQKVRPNEENNKDADLYTSRVMLSSQVPLEPPLLFLLEEYKNYLDAANMSMRVRRHSDPARRGELSVCDSISEWVTAADKKTAVDMSGGTVTVLEKVPVSKGQLKQYFYETKCNPMGYTKEGCRGIDKRHWNSQCRTTQSYVRALTMDSKKRIGWRFIRIDTSCVCTLTIKRGR
IPSC/EPSC ratio [2]: without alteration
TC EPSC potency [2]: significantly increased
